From patent publication US12612358B2, “Resorcinol-based compounds and uses thereof” (priority 2020, dated 2026)

What was measured:
MDA-MB231 cells [1] = assay: Invasion in modified Boyden chambers, MDA-MB231 cells; format: cell-based, human
Protocol: Effects of Compound-5B on breast cancer cell proliferation, Id-1 expression and invasion in culture. […] The ability of the cells to migrate and invade in modified Boyden chambers was determined. The percentage relative invasion was calculated as the effect on treated cells/vehicle cells×100. Respective controls (vehicle treated cells) were set as 100%.

Id-1 = Id-1 expression in primary patient-derived BRC25 cells; format: cell-based, human
Protocol: Quantitative Western analysis: Cells are cultured and treated in 6-well dishes. After the cells are washed twice with cold PBS, lysis buffer is added. The cells are then lysed by freezing for 10 min at −70° C. and then thawing at ambient temperature. The cell lysate is collected and the protein content is determined by using Bradford reagent. Equal amounts of protein are heated at 90° C. in Laemmli sample buffer which also included β-mercaptoethanol. The samples are then loaded onto a precast SDS-PAGE gel (Bio-Rad Laboratories, Hercules, CA). After which, proteins are then electroblotted onto an Immobilon membrane (Millipore, Billerica, MA) overnight at 2-4° C. The membrane is then blocked for 1 hour with 5% nonfat dry milk which included TBS+Tween. The membranes are then incubated with an anti-Id-1 primary antibody, and then an appropriate secondary antibody was used. Blots are incubated for 45 min and then washed 4 times with TBS+Tween for 15 min each. […]
Effects of Compound-5B on breast cancer cell proliferation, Id-1 expression and invasion in culture. […] The ability of the cells to migrate and invade in modified Boyden chambers was determined. The percentage relative invasion was calculated as the effect on treated cells/vehicle cells×100. […]

[2] = Aqueous solubility (Eurofins ADME); format: physicochemical
Protocol: (§1) Evaluating ADME of Compound-5B in vitro. It is important to evaluate ADME first in culture as it allows for the selection of the best candidate for PK analysis in vivo. ADME analysis of Compound-5B was performed by Eurofins.

hERG = biological target: T1, hERG (Homo sapiens, UniProt Q12809); assay: hERG channel inhibition; format: biochemical
T1 construct: purchased Eurofins
T1 sequence (Q12809 whole entry): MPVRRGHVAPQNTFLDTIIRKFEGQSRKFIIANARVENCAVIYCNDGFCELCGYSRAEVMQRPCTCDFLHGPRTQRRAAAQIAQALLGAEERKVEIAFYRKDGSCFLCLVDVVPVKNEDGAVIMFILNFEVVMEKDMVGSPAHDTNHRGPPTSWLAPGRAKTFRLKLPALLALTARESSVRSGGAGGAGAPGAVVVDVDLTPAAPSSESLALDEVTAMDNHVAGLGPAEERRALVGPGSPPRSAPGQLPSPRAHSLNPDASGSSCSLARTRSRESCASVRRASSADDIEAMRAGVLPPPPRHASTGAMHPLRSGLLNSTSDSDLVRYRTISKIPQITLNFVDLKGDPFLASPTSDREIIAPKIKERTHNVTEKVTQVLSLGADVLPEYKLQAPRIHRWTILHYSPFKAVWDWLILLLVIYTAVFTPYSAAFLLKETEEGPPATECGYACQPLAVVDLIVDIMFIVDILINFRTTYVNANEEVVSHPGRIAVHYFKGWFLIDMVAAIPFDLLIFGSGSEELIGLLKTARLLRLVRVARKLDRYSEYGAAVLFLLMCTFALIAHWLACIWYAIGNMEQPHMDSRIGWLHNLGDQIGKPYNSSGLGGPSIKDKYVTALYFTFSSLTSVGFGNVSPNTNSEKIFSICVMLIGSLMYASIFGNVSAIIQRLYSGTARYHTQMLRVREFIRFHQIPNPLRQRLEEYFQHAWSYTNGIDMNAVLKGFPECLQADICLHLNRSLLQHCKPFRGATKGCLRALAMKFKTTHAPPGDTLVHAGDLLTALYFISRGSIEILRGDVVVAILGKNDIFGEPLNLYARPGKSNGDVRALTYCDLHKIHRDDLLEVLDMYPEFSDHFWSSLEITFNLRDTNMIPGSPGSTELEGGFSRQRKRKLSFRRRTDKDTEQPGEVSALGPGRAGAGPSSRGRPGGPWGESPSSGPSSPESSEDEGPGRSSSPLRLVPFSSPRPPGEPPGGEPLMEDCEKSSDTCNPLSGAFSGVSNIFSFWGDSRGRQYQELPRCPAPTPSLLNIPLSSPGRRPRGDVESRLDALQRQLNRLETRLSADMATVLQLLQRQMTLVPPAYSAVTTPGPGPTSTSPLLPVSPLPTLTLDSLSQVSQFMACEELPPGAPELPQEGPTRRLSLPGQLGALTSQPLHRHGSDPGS
Protocol: as §1

[3] = system: MDA-MB231 breast cancer cells; assay: Combination with paclitaxel, viability of MDA-MB231 cells (combination index); format: cell-based, human; conditions: combination with paclitaxel at optimal combined ratios
Protocol: Concentration-response curves were generated for Compound-5B and paclitaxel alone and in combination (FIG. 2C). The inhibitory values from the concentration response curves were used to calculate combination index (CI) values at multiple combination ratios (FIG. 3A). Methods: Multiple viability assays in a 384 well format were run for each compound and the average percent inhibition of cell viability was calculated and transformed to fraction affected (Fa) e.g., percent inhibitory effect. CI values were calculated using Compusyn software (FIG. 3B). After determining the (IC50/Fa 0.5) values of the drugs individually (C), components were then combined at specific concentration ranges (FIG. 3B) and a combination index was calculated where CI<1, =1, and >1 indicate synergism, additive effect, and antagonism, respectively.

BXPC-3 = assay: CellTiter-Glo cell proliferation, BxPC-3 pancreatic cancer cells; format: cell-based; conditions: Homo sapiens, read-out: IC50 category
Description: (§2) Cell culture and treatment of pancreatic cancer cell lines: Pancreatic cancer cells lines BxPC-3, SW1990, and PANC-1 used in the experiments presented herein can be obtained from ATCC. The cells can be cultured and passaged in complete growth medium (RPMI-1640, Dulbecco's Modified Eagle Medium, or Leibovitz's L-15 medium) that has been supplemented with fetal bovine serum to a final concentration of 10%.
Effects of Compound-5B on proliferation and Id-1 expression in pancreatic cell lines. Compound-5B was next tested for inhibition of cell viability/proliferation in the three pancreatic cancer cell lines and two primary patient-derived cancer cell lines. Compound-5B inhibited cell viability/proliferation of all the cancer cell lines (Table 2). The culturing condition for the pancreatic cell lines was similar to those used in the breast cancer lines, with the exception of the primary patient-derived pancreatic cancer cell lines (PANC9 and PANC13). […] Cell proliferation of pancreatic cells in the presence of drug was measured using the CellTiter-Glo luminescent Assay and IC50 values were calculated (Table 2). […]

MDA-MB231 cells [4] = assay: MDA-MB231 mammary fat pad primary tumor model in athymic nu/nu mice; format: in vivo, mouse; conditions: MDA-MB231, 1 mg/kg i.p. once daily, 6 days a week
Protocol: Antitumor activity of Compound-5B in vivo in breast cancer. Based on the activity of Compound-5B in culture, the antitumor activity of Compound-5B was tested in vivo in two models of breast cancer (FIG. 4). Compound-5B produced a potent inhibition of Id-1 expression in human MDA-MB231 cells (FIG. 1A). We also determined whether it produced a similar effect in mouse 4T1 breast cancer cells. This cell line is commonly used for seeding a lung metastatic model in mice. […] LC=loading control (FIG. 4A). […] Lung metastases were generated in BALB/c mice by tail vein injection of 4×10^4 4T1 cells. Two days after the injection, the tumor bearing mice were injected i.p. once a day, six days a week, with vehicle or Compound 5B three weeks. Lung metastasis % (total metastatic foci in treated/vehicle×100) was evaluated (FIG. 4B). […] Animals with established tumors (average volume of 100 mm^3) were randomized and treated once daily, 6 days a week, with i.p., injections of vehicle, or 1 mg/kg Compound-5B, tumors were measured once weekly by an operator blinded to the treatment groups. Changes in tumor volume (mm^3) were calculated as (length×width2)/2. *indicates statistically significant differences between vehicle and Compound-5B (p<0.05, Two-way ANOVA repeated measures, and Tukey's multiple comparisons test).

PANC-1 = assay: CellTiter-Glo cell proliferation, PANC-1 pancreatic cancer cells; format: cell-based, human
Description: as §2
Effects of Compound-5B on proliferation and Id-1 expression in pancreatic cell lines. Compound-5B was next tested for inhibition of cell viability/proliferation in the three pancreatic cancer cell lines and two primary patient-derived cancer cell lines. Compound-5B inhibited cell viability/proliferation of all the cancer cell lines (Table 2). The culturing condition for the pancreatic cell lines was similar to those used in the breast cancer lines, with the exception of the primary patient-derived pancreatic cancer cell lines (PANC9 and PANC13). For determining inhibition of cell proliferation in patient-derived pancreatic cancer cells were cultured in a T75 ultra low attachment flasks with DMEM/F12 media supplemented with B27, penicillin/streptomycin (10,000 u/mL), 50 µg/mL human epidermal growth factor (hEGF), 50 μg/mL human fibroblast growth factor, and 5 μg/mL heparin. Cells were plated in a 384-well plate and incubated for three days to promote the formation of tumorspheres. Cells were then treated with Compound-5B for three days. Cell proliferation of pancreatic cells in the presence of drug was measured using the CellTiter-Glo luminescent Assay and IC50 values were calculated (Table 2). The IC50 and corresponding 95% confidence limits (CL) were calculated using non-linear regression analysis.

[5] = Mouse liver microsome stability (Eurofins ADME); format: in vitro ADME
Protocol: as §1

MDA-MB231 D3H = assay: CellTiter-Glo viability/proliferation assay, MDA-MB231 breast cancer cells; format: cell-based; conditions: Homo sapiens, MDA-MB-231, 48 h; CellTiter-Glo, two-day treatment; read-out: Inhibition of MDA-MB231 D3H

CCCCCCC(C)(C)c1cc(O)c(C(=O)Nc2ccccc2)c(O)c1 [Compound 5B, 2,6-dihydroxy-4-(2-methyloctan-2-yl)-N-phenylbenzamide]
invasion of MDA-MB231 cells (MDA-MB231 cells [1]): inhibits the invasion | inhibition of Id-1 expression (Id-1): significant potency | aqueous solubility [2]: low | inhibition of cardiac channel hERG (hERG): no inhibition | effect on paclitaxel inhibition of cell viability [3]: can enhance the ability of paclitaxel to inhibit the viability | IC50 (BXPC-3): 1000 to 5000 nM | primary tumor growth (MDA-MB231 cells [4]): able to inhibit primary tumor growth | IC50 (PANC-1; Homo sapiens, PANC-1, read-out: IC50 category): < 500 nM | improvement in potency (IC50) compared to the parent compound CBD (PANC-1; PANC-1 (by context)): 38 fold | clearance (microsomal stability assays) [5]: acceptable | half-life (microsomal stability assays) [5]: acceptable | stability in mouse liver microsomes [5]: good | IC50 (MDA-MB231 D3H): < 500 nM
